Measurements from patent US10487119B2, “Peptides for diagnosis and treatment of cancer” (National Taiwan University, priority 2013, dated 2019).
Where two headings read alike, the source gives them in different places. No end group written: not given here.

Legend:
NPC cells = assay: Addition of targeted peptide to NPC cell culture medium; assay type: cell-based; details: 1 mg/mL in NPC cells culture medium, sustained to 10 days
Description: Apparently, this finding indicate that the protein bound by the targeted peptide is not a receptor protein or the like thereof.

NPC cells (NPC-TW01) = assay: Prussian blue staining of cultured NPC cells incubated with peptide-linked iron oxide nanoparticles; assay type: cell-based; details: 4° C. for 1.0 hr and 37° C. for 4 hr
Description: The dextran coated-Fe3O4 is linked with the targeted peptide SEQ ID NO:1 or the FITC-targeted peptide SEQ ID NO:1 by the MagQu Company. Dextran is used as the hydrophilic surfactant layer. The iron oxide fluid with the desired concentration is available by diluting the highly concentrated iron oxide fluid with a pH 7.4 phosphate buffered saline (PBS) solution. […] Cells are washed in a 2% fetal bovine serum in PBS. After fixation, the binding ability between the targeted peptide SEQ ID NO: 1 and tumor cells can be observed by Prussian blue reagent; each iron oxide nanoparticle is bound by approximately above 10 targeted peptides.

[1] = system: breast cancer cells (MDA-MB-231); assay: Prussian blue staining of breast cancer cell line; assay type: cell-based
blood monocytes = assay: Prussian blue staining of blood monocytes; assay type: cell-based; details: 1.0 hr and 37° C. for 4 hr
Protocol: (§3) Blood monocytes, hepatoma (Hep G2) and pancreatic cancer (Pan 1) cell lines are incubated with P-Dex-Fe3O4 nanoparticle for 1.0 hr and 37° C. for 4 hr, and then are stained with Prussian blue reagent.

[2] = system: hepatoma (Hep G2) cell line; assay: Prussian blue staining of hepatoma cell line; assay type: cell-based
Description: In addition to the targeted peptide SEQ ID NO: 1, the present invention also provides another targeted peptide SEQ ID NO: 2 for synthesizing the targeted peptide SEQ ID NO: 2-linked dextran-coated iron oxide nanoparticles.

[3] = system: pancreatic cancer (Pan 1) cell line; assay: Prussian blue staining of pancreatic cancer cell line; assay type: cell-based
Protocol: as §3

NPC biopsy specimens = assay: Peptide histochemical localization in formalin-fixed paraffin-embedded NPC biopsy specimens; design: species or system human; details: overnight at 4° C.
Protocol: (§4) The sections are incubated overnight at 4° C. with the P-Dex-Fe3O4 nanoparticles, and washed with PBS, then are incubated for 15-30 min with routine Prussian blue reagent (containing 2% potassium ferricyanide (Sigma-aldrich.com. St Louis Mo., U.S.A.) and 0.5 N HCl in dH2O=1:1), followed by counterstaining for 5 min with nuclear fast red solution, washed with water, and mounted with 50% glycerol directly or with balsam after alcohol dehydration.

[4] = system: breast cancer surgical specimens; assay: Peptide histochemical localization in breast cancer surgical specimens; design: species or system human
Protocol: as §4

[5] = system: hepatoma surgical specimens; assay: Peptide histochemical localization in hepatoma surgical specimens; design: species or system human; details: for Prussian blue reaction product in tumor cells of hepatoma sections: formalin-fixed paraffin-embedded
Description: Peptide histochemical diagnosis of the present invention can be applied to hepatoma surgical specimens.

[6] = system: pancreatic cancer sections; assay: Peptide histochemical localization in pancreatic surgical specimens; design: species or system human; details: formalin-fixed paraffin-embedded
Description: Peptide histochemical diagnosis of the present invention can be applied to pancreatic surgical specimens, ether the targeted peptide is SEQ ID NO: 1 or SEQ ID NO: 2.

[7] = system: normal peripheral blood cells; assay: Prussian blue staining of normal peripheral blood smears; assay type: cell-based, human
Description: The present invention prepared L-peptide-linked dextran-coated iron oxide nanoparticles, such as, L-P-Fe3O4, SP-94-P-Fe3O4, PC5-52-P-Fe3O4 and control-peptide-Fe3O4 nanoparticles (C-P-Fe3O4). The dextran coated-Fe3O4 nanoparticles (Dex-Fe3O4) were purchased from MAGQU Company. This company conjugates L-peptide, SP-94-peptide and PC5-52-peptide, separately, to the Dex-Fe3O4 nanoparticles. Each Dex-Fe3O4 can be linked with more than 10 peptide molecules. For localization of the peptide targeted protein in HepG2 and Huh-7 cell lines, the present invention first have to check whether our peptide can also bind to the mononuclear cells in the human peripheral blood. The mononuclear cells were obtained from the normal personal blood using Histopaque-1077 solution (SIGMA, St, Louis, Mo. U.S.A).
(§1) After the blood smears were fixed by formaldehyde, they were treated with or without Triton X-100 detergent and then stained with L-P-Fe3O4, SP-94-P-Fe3O4 or Control-P-Fe3O4 (C-P-Fe3O4) (40 μg/mL) and subjected to Prussian blue reaction with nuclear fast red contrast staining. Using the similar peptide histochemical procedure, the HepG2 and Huh-7 tumor cells were also stained. But in addition to the L-P-Fe3O4 and SP-94-P-Fe3O4, a ratio of 1:1 of L-P-Fe3O4: SP-94-P-Fe3O4 were mixed and used to stain the HepG2 and Huh-7 tumor cells.

HepG2 tumor cells = assay: Prussian blue staining of formalin-fixed, Triton X-100 treated HCC cell line; assay type: cell-based
Protocol: as §1

Huh-7 tumor cells = assay: as above; assay type: cell-based
Protocol: as §1

[8] = system: hepatocellular carcinoma surgical specimens; assay: Peptide histochemistry of hepatocellular carcinoma (HCC) surgical specimens; design: species or system human; details: for Prussian blue staining pattern in HCC surgical sections: 40 μg per mL, overnight; for Average percentage of stained tumor cell number 25-50% / Average percentage of stained tumor cell number <25% / Average percentage of stained tumor cell number >75%: N = 30, ten HPF (x 400)
Protocol: For hepatocellular carcinoma surgical specimens, after the deparaffinization of the paraffin-embedded sections and retrieval of targeted protein molecule, as part of the routine immunohistochemistry described as above-mentioned, the sections were incubated overnight with (a) The L-P-Fe3O4 (40 μg per mL); (b) SP-94-P-Fe3O4 (40 μg/mL); (c) one to one ratio of (a) and (b), then with routine Prussian blue reagents, followed by a counter staining for 2 min with nuclear fast red solution. The present invention has used this method to examine 30 hepatocellular carcinoma surgical specimens without difficulty. To count the positive stained cell number of the Prussian blue stained cells in each paraffin section, which are counted 10 high power fields (×400).

HepG2 xenografts = assay: Peptide targeted chemotherapy of mice bearing HepG2 xenografts; assay type: in vivo; details: SCID mice bearing hepatoma xenograft
Protocol: For the peptide targeted chemotherapy, 40 male SCID mice were transplanted with […] HepG2 cells into their right thigh subcutaneously; after 10 days, solid xenografts measuring approximately 0.8 cm in diameter were found in each mouse, then they were divided into four groups (each group included 10 mice). The first group was injected with PBS; the second and third groups were injected either with L-P-L-D or PC5-52-P-L-D, separately. Each dose contained 2 mg doxorubicin/kg of mouse body weight. The fourth group mice were injected with L-P-L-D (1 mg doxorubicin/kg) mixed with PC5-52-P-L-D (1 mg doxorubicin/kg). All doses were injected through the tail vein, once per week, for a total of 4 injections, and all animals were sacrificed at day 35. The body weight and tumor size were measured weekly. All animals were examined by routine autopsy. The xenograft tumors and all visceral organs were examined by histopathological sections after stained by hematoxylin and eosin. The pegylated peptide was linked to L-D in our laboratory according to our previously published methods (Cancer Res. 64:8002-8008, Nov. 1, 2004). For comparison, another animal experiment was performed. In the later experiment, the present invention used NSG (NOD-SCID immunodeficiency gamma strain animals); the experiments were totally similar to the NOD SCID mice case. […]

[9] = system: hepatoma and pancreatic cancer cells; assay: FITC-peptide binding to hepatoma and pancreatic cancer cells; assay type: cell-based
NPC-TW07 cells = assay: Flow cytometry analysis of FITC-peptide binding to cells; assay type: cell-based
Description: (§2) The cultured cells, including nasopharyngeal carcinoma (NPC-TW01 and NPC-TW07), non-small cell lung cancer (H1299 and A549), neuroblastoma (Be2C), breast cancer (MB157) and immortalized embryonic renal epithelia (TEKID) ([…]) are subjected to flow cytometer (FACSCAN, BD Co., U.S.A.) after the FITC (Fluorescein isothiocyanate)-targeted peptide SEQ ID NO:1 treatment. Simultaneously, FITC-control peptide, FITC-biotin-targeted peptide SEQ ID NO: 1 (B-P) and FITC-biotin-control peptide (B-C-P) are used for flow cytometry comparison.

NPC-TW01 cells = assay: as above; assay type: cell-based
Description: as §2

[10] = system: breast cancer (MB157) cells; assay: as above; assay type: cell-based
Description: as §2

[11] = system: neuroblastoma (Be2C) cells; assay: as above; assay type: cell-based
Description: as §2

[12] = system: non-small cell lung cancer (A549) cells; assay: as above; assay type: cell-based
Description: as §2

[13] = system: non-small cell lung cancer (H1299) cells; assay: as above; assay type: cell-based
Description: as §2

[14] = system: immortalized embryonic renal cell line (293T); assay: as above; assay type: cell-based, human; details: 293T immortalized renal cell line
Description: as §2

Substance: targeted peptide SEQ ID NO: 1: 12 amino acid targeted peptide (L-peptide) obtained from nasopharyngeal carcinoma (RLLDTNRPLLPY)
- change of tumor cell morphology and behavior (NPC cells): no any specific change of tumor cell morphology and behavior

Substance: P-Dex-Fe3O4 (RLLDTNRPLLPY)
- Prussian blue reaction product in NPC cells (NPC cells (NPC-TW01)): the reaction products are seen in the cytoplasm of a majority of the tumor cells
- Prussian blue reaction product in breast cancer cells [1]: the reaction products appear in most of the cytoplasm of breast cancer cells
- Prussian blue reaction product in blood monocytes (blood monocytes): no reaction product
- Prussian blue reaction product in hepatoma cell line [2]: show blue reaction products
- Prussian blue reaction product in hepatoma cell line ([2]; listed as targeted peptide SEQ ID NO:1-linked dextran-coated iron oxide nanoparticles): blue reaction product
- Prussian blue reaction product in pancreatic cancer cell line [3]: show blue reaction products
- Prussian blue reaction product in tumor cells of NPC biopsy sections (NPC biopsy specimens): the Prussian blue reaction product is easily identified in the tumor cells of stained sections
- Prussian blue reaction product in tumor cells from breast cancer metastatic axillary lymph nodes [4]: reveal blue reaction product
- Prussian blue reaction product in stromal regions in tumor nests ([4]; breast cancer sections): no blue reaction product
- Prussian blue reaction product in breast cancer sections ([4]; formalin-fixed paraffin-embedded, specimens more than 1 cm in diameter): show the Prussian blue reaction products
- Prussian blue reaction product in tumor cells of hepatoma sections [5]: show in single infiltrating tumor cells
- Prussian blue reaction product in normal cells of hepatoma sections ([5]; normal cells compressed by tumor cells): the blue reaction products do not show in the normal cells
- Prussian blue reaction product in pancreatic cancer sections [6]: all show the reaction products
- Prussian blue reaction product in fixed blood smears treated with Triton X-100 ([7]; with Triton X-100): the mononuclear cells but not red blood cells showed blue reaction product in their cytoplasm
- Prussian blue reaction product in blood smears fixed in formalin ([7]; without Triton X-100): no reaction product was seen
- Prussian blue stained HepG2 tumor cells (HepG2 tumor cells): many tumor cells were stained by a blue reaction product
- Prussian blue stained Huh-7 tumor cells (Huh-7 tumor cells): stained cell number is somewhat a little more than that of SP-94-P-Fe3O4 stained case
- Prussian blue staining pattern in HCC surgical sections [8]: the Prussian blue reaction product was easily identified in the tumor cells in stained sections
- Average percentage of stained tumor cell number 25-50% [8]: 7 cases
- Average percentage of stained tumor cell number <25% [8]: 6 cases
- Average percentage of stained tumor cell number >75% [8]: 17 cases

Substance: control peptide (RLLDTNRPLGGG; also: FITC or biotin label)
- adverse event / visceral organs (HepG2 xenografts): the visceral organs revealed marked apoptotic change
- tumor growth / xenograft size (HepG2 xenografts): the xenograft size was also decreased

Substance: FITC-targeted peptide SEQ ID NO: 2: FITC-labelled targeted peptide SEQ ID NO: 2 (SFSIIHTPILPL; also: FITC label)
- binding to hepatoma and pancreatic cancer cells [9]: can be used to bind to hepatoma and pancreatic cancer cells

Substance: SP-94-P-Fe3O4 (SFSIIHTPILPL)
- Prussian blue reaction product in hepatoma cell line [2]: blue reaction product
- Prussian blue reaction product in tumor cells of hepatoma sections [5]: the Prussian blue products can also be observed in the tumor cells
- Prussian blue reaction product in pancreatic cancer sections [6]: all show the reaction products
- Prussian blue stained HepG2 tumor cells (HepG2 tumor cells): the stained cell number was lower than that of the L-P-Fe3O4 treated case
- Prussian blue staining pattern in HCC surgical sections [8]: the staining pattern was the same as L-P-Fe3O4 staining
- Average percentage of stained tumor cell number 25-50% [8]: 9 cases
- Average percentage of stained tumor cell number <25% [8]: 5 cases
- Average percentage of stained tumor cell number >75% [8]: 16 cases

Substance: FITC-linked control peptide SEQ ID NO: 3: FITC-labelled control peptide (RLLDTNRPLGGG; also: FITC label) [reference compound]
- binding to NPC-TW07 cells (flow cytometry histogram) (NPC-TW07 cells): very weak binding activity

Substance: FITC-targeted peptide SEQ ID NO: 1: fluorescein isothiocyanate-labelled targeted peptide SEQ ID NO:1 (RLLDTNRPLLPY; also: FITC label)
- binding to NPC-TW01 cells (flow cytometry) (NPC-TW01 cells): a clear binding peak
- binding to NPC-TW07 cells (flow cytometry histogram) (NPC-TW07 cells): a clear peak is found in the histogram
- binding to MB157 cells (flow cytometry) [10]: a clear binding peak
- binding to Be2C cells (flow cytometry) [11]: a clear binding peak
- binding to A549 cells (flow cytometry) [12]: a clear binding peak
- binding to H1299 cells (flow cytometry) [13]: a clear binding peak
- binding to 293T cells (flow cytometry) [14]: without showing any binding phenomenon
